Source: the NIST ThermoML archive (doi:10.1016/j.fluid.2006.05.007)

Test: xn = mol fraction of the nth substance listed
Conditions: Fluid (supercritical or subcritical phases)

CO [methanol] + O
Conditions | mass density [kg/m3]
572.91 K, 10085 kPa, x1 = 0.3044 | 77.4
573.08 K, 10068 kPa, x1 = 0.4031 | 79.4
573.15 K, 10080 kPa, x1 = 0.5144 | 83.3
573.26 K, 10081 kPa, x1 = 0.59 | 85.5
573.31 K, 10076 kPa, x1 = 0.7905 | 92.4
573.34 K, 10081 kPa, x1 = 0.8802 | 94.8
573.35 K, 10077 kPa, x1 = 0.6896 | 87.7
573.43 K, 10083 kPa, x1 = 0.0997 | 405
573.46 K, 11526 kPa, x1 = 0.4031 | 107.2
573.49 K, 10078 kPa, x1 = 0.0494 | 679.2
573.52 K, 11527 kPa, x1 = 0.5144 | 108.7
573.63 K, 11542 kPa, x1 = 0.59 | 111.3
573.67 K, 11523 kPa, x1 = 0.6896 | 113.3
573.72 K, 11537 kPa, x1 = 0.0175 | 704.3
573.74 K, 11532 kPa, x1 = 0.7905 | 115.7
573.74 K, 11535 kPa, x1 = 0.8802 | 118.9
573.75 K, 11533 kPa, x1 = 0.007 | 712.1
573.78 K, 11525 kPa, x1 = 0.0997 | 646.8
573.78 K, 11527 kPa, x1 = 0.1971 | 534.3
573.78 K, 11530 kPa, x1 = 0.1484 | 611.5
573.79 K, 11533 kPa, x1 = 0.0494 | 682.1
574.29 K, 20003 kPa, x1 = 0.0997 | 671.8
574.34 K, 20013 kPa, x1 = 0.3044 | 560.2
574.34 K, 20016 kPa, x1 = 0.6896 | 398.6
574.35 K, 20000 kPa, x1 = 0.0494 | 701.9
574.37 K, 19997 kPa, x1 = 0.1484 | 645.8
574.37 K, 20007 kPa, x1 = 0.59 | 431.4
574.37 K, 20014 kPa, x1 = 0.1971 | 617
574.37 K, 20019 kPa, x1 = 0.4031 | 512.2
574.38 K, 20012 kPa, x1 = 0.7905 | 375.2
574.39 K, 20005 kPa, x1 = 0.5144 | 460.1
574.45 K, 20012 kPa, x1 = 0.8802 | 354.5
588.56 K, 13757 kPa, x1 = 0.3044 | 135.3
588.59 K, 13753 kPa, x1 = 0.5144 | 131.6
588.63 K, 13755 kPa, x1 = 0.4031 | 133
588.68 K, 13752 kPa, x1 = 0.7905 | 137.1
588.69 K, 13759 kPa, x1 = 0.59 | 132.6
588.74 K, 13760 kPa, x1 = 0.6896 | 134.8
588.76 K, 13753 kPa, x1 = 0.1971 | 409.6
588.79 K, 13754 kPa, x1 = 0.8802 | 139.5
588.8 K, 13760 kPa, x1 = 0.1484 | 563.2
588.81 K, 13767 kPa, x1 = 0.007 | 679.9
588.83 K, 13755 kPa, x1 = 0.0997 | 606.6
588.84 K, 13753 kPa, x1 = 0.0175 | 672.4
588.85 K, 13755 kPa, x1 = 0.0494 | 647.6
